Measured values as given in PubChem BioAssay AID248 (DTP/NCI, 2004).
Where “and” joins values, the source holds several entries; their conditions need not be identical. Equal entries are not always repeated. Toxic doses and inconclusive results are not listed.

Test system: L1210 leukemia ip in BDF1 mice, survival T/C
Test: NCI In Vivo Anticancer Drug Screen. Data for tumor model L1210 Leukemia (intraperitoneal) in B6D2F1 (BDF1) mice
Conditions: endpoint: mean survival time, higher = longer survival
How it was run: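 In this screen, tumor-bearing mice given compound are compared to those given vehicle, and their survival values are reported as a treated-to-control quotient.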

[1] = dose: 25.0 mg/kg/injection, schedule: Q01DX009 (ip), vehicle: saline with Tween-80
[2] = dose: 50.0 mg/kg/injection, schedule: Q01DX009 (ip), vehicle: saline with Tween-80
[3] = dose: 50.0 mg/kg/injection, schedule: Q01DX009 (ip), vehicle: saline
[4] = dose: 50.0 mg/kg/injection, schedule: Q04DX003 (ip), vehicle: saline
[5] = dose: 100.0 mg/kg/injection, schedule: Q01DX009 (ip), vehicle: saline
[6] = dose: 100.0 mg/kg/injection, schedule: Q01DX009 (ip), vehicle: saline with Tween-80
[7] = dose: 200.0 mg/kg/injection, schedule: Q01DX009 (ip), vehicle: saline with Tween-80
[8] = dose: 12.5 mg/kg/injection, schedule: Q01DX009 (ip), vehicle: saline
[9] = dose: 25.0 mg/kg/injection, schedule: Q01DX009 (ip), vehicle: saline
[10] = dose: 100.0 mg/kg/injection, schedule: Q01DX001 (ip), vehicle: saline
[11] = dose: 200.0 mg/kg/injection, schedule: Q01DX001 (ip), vehicle: saline
[12] = dose: 100.0 mg/kg/injection, schedule: Q01DX001 (ip), vehicle: carboxymethylcellulose (CMC)
[13] = dose: 200.0 mg/kg/injection, schedule: Q01DX001 (ip), vehicle: carboxymethylcellulose (CMC)
[14] = dose: 400.0 mg/kg/injection, schedule: Q01DX001 (ip), vehicle: carboxymethylcellulose (CMC)

`N#C/C(=C\c1ccc(-c2ccccc2)cc1)c1ccccc1` was tested, and the T/C (dose: 12.5 mg/kg/injection, schedule: Q01DX009 (ip), vehicle: saline with Tween-80) was 87 % of control, the T/C (dose: 12.5 mg/kg/injection, schedule: Q04DX003 (ip), vehicle: saline with Tween-80) was 109 % of control and the T/C [1] was 87 % of control. The T/C (dose: 25.0 mg/kg/injection, schedule: Q04DX003 (ip), vehicle: saline with Tween-80) was 91 % of control, the T/C [2] was 86 % of control and the T/C (dose: 50.0 mg/kg/injection, schedule: Q04DX003 (ip), vehicle: saline with Tween-80) was 88 % of control.

With `NC(=O)N/N=C1/C=C2CCCCC2CC1` (configuration not stated) the T/C (dose: 75.0 mg/kg/injection, schedule: Q01DX001 (ip), vehicle: other) was 101 % of control, the T/C (dose: 150.0 mg/kg/injection, schedule: Q01DX001 (ip), vehicle: other) was 95 % of control and the T/C (dose: 300.0 mg/kg/injection, schedule: Q01DX001 (ip), vehicle: other) was 100 % of control.

With `COC(=O)C(CCSC)NC(=O)CNC(=O)OCc1ccccc1` (configuration not stated) the T/C (dose: 100.0 mg/kg/injection, schedule: Q04DX003 (ip), vehicle: Klucel (hydroxypropylcellulose) (HPC)) was 99 % of control, the T/C (dose: 200.0 mg/kg/injection, schedule: Q04DX003 (ip), vehicle: Klucel (hydroxypropylcellulose) (HPC)) was 97 % of control and the T/C (dose: 400.0 mg/kg/injection, schedule: Q04DX003 (ip), vehicle: Klucel (hydroxypropylcellulose) (HPC)) was 92 % of control.

With `Nc1nc2ccccc2nc1N` the T/C [3] was 96 % of control, the T/C [4] was 105 % of control and the T/C [5] was 104 % of control. For the same molecule, the T/C (dose: 100.0 mg/kg/injection, schedule: Q04DX003 (ip), vehicle: saline) was 101 % of control and the T/C (dose: 200.0 mg/kg/injection, schedule: Q04DX003 (ip), vehicle: saline) was 108 % of control.

`O=S(=O)(NC1CCc2ccccc21)c1ccccc1` (configuration not stated) was tested, and the T/C [6] was 95 % of control and the T/C [7] was 90 % of control.

In the case of `O=c1c2cccc3c2-c2c4c(cccc14)cc1cccc(c3=O)c21`, the T/C (dose: 100.0 mg/kg/injection, schedule: Q04DX003 (ip), vehicle: saline with Tween-80) is reported as 94 % of control, the T/C (dose: 200.0 mg/kg/injection, schedule: Q04DX003 (ip), vehicle: saline with Tween-80) is reported as 89 % of control and the T/C (dose: 400.0 mg/kg/injection, schedule: Q04DX003 (ip), vehicle: saline with Tween-80) is reported as 100 % of control.

`COC(=O)C1=COC(C)C2CN3CCc4c([nH]c5cc(OC)c(OC)cc45)C3CC12` (configuration not stated) was tested, and the T/C (dose: 50.0 mg/kg/injection, schedule: Q01DX Z (ip), vehicle: carboxymethylcellulose (CMC)) was 103 % of control, the T/C (dose: 100.0 mg/kg/injection, schedule: Q01DX Z (ip), vehicle: carboxymethylcellulose (CMC)) was 105 % of control and the T/C (dose: 200.0 mg/kg/injection, schedule: Q01DX Z (ip), vehicle: carboxymethylcellulose (CMC)) was 100 % of control. The T/C (dose: 300.0 mg/kg/injection, schedule: Q01DX Z (ip), vehicle: carboxymethylcellulose (CMC)) was 105 % of control.

For `Oc1ccc(Nc2ccnc3cc(Cl)ccc23)cc1CN1CCCC1`, the T/C [8] was 102 % of control, the T/C (dose: 12.5 mg/kg/injection, schedule: Q04DX003 (ip), vehicle: saline) was 101 % of control and the T/C [9] was 102 % of control. The T/C (dose: 25.0 mg/kg/injection, schedule: Q04DX003 (ip), vehicle: saline) was 103 % of control, the T/C [3] was 100 % of control and the T/C [4] was 97 % of control. For the same molecule, the T/C (dose: 75.0 mg/kg/injection, schedule: Q01DX009 (ip), vehicle: saline) was 95 % of control and the T/C (dose: 115.0 mg/kg/injection, schedule: Q01DX009 (ip), vehicle: saline) was 102 % of control.

`CCCCCC(C)SC#N` (configuration not stated) was tested, and the T/C [1] was 107 % of control, the T/C [2] was 102 % of control and the T/C [6] was 88 % of control.

With `Nc1nc(N)c(N=Nc2ccc([As](=O)(O)O)c(O)c2)c(N)n1` the T/C [10] was 92 % of control, the T/C [11] was 92 % of control and the T/C (dose: 400.0 mg/kg/injection, schedule: Q01DX001 (ip), vehicle: saline) was 100 % of control.

In the case of `O=C(Cc1ccccc1)Nc1cccnc1`, the T/C (dose: 75.0 mg/kg/injection, schedule: Q04DX003 (ip), vehicle: Klucel (hydroxypropylcellulose) (HPC)) is reported as 102 % of control, the T/C (dose: 100.0 mg/kg/injection, schedule: Q01DX001 (ip), vehicle: Klucel (hydroxypropylcellulose) (HPC)) is reported as 97 % of control and the T/C (dose: 150.0 mg/kg/injection, schedule: Q04DX003 (ip), vehicle: Klucel (hydroxypropylcellulose) (HPC)) is reported as 114 % of control. For the same molecule, the T/C (dose: 200.0 mg/kg/injection, schedule: Q01DX001 (ip), vehicle: Klucel (hydroxypropylcellulose) (HPC)) was 103 % of control, the T/C (dose: 300.0 mg/kg/injection, schedule: Q04DX003 (ip), vehicle: Klucel (hydroxypropylcellulose) (HPC)) was 104 % of control and the T/C (dose: 400.0 mg/kg/injection, schedule: Q01DX001 (ip), vehicle: Klucel (hydroxypropylcellulose) (HPC)) was 92 % of control.

For `CC1=CC(C)(C)NC(=S)N1c1ccc(N(C)C)cc1`, the T/C (dose: 112.0 mg/kg/injection, schedule: Q01DX Z (ip), vehicle: methylcellulose (MC)) was 101 % of control, the T/C (dose: 166.0 mg/kg/injection, schedule: Q01DX Z (ip), vehicle: methylcellulose (MC)) was 96 % of control and the T/C (dose: 250.0 mg/kg/injection, schedule: Q01DX Z (ip), vehicle: methylcellulose (MC)) was 94 % of control. The T/C (dose: 375.0 mg/kg/injection, schedule: Q01DX Z (ip), vehicle: methylcellulose (MC)) was 96 % of control.

In the case of `O=NN(CCCl)C(=O)Nc1c[nH]c2ccccc12`, the T/C (dose: 118.0 mg/kg/injection, schedule: Q01DX009 (ip), vehicle: carboxymethylcellulose (CMC)) is reported as 116 % of control, the T/C (dose: 177.0 mg/kg/injection, schedule: Q01DX009 (ip), vehicle: carboxymethylcellulose (CMC)) is reported as 116 % of control and the T/C (dose: 266.0 mg/kg/injection, schedule: Q01DX009 (ip), vehicle: carboxymethylcellulose (CMC)) is reported as 123 % of control. The T/C (dose: 400.0 mg/kg/injection, schedule: Q01DX009 (ip), vehicle: carboxymethylcellulose (CMC)) was 124 % of control and the T/C (dose: 600.0 mg/kg/injection, schedule: Q01DX009 (ip), vehicle: carboxymethylcellulose (CMC)) was 156 % of control.

With `COC1=CC23CCCN2CCc2cc4c(cc2C3C1O)OCO4` (configuration not stated) the T/C [9] was 93 % of control, the T/C [3] was 103 % of control and the T/C (dose: 55.0 mg/kg/injection, schedule: Q01DX009 (ip), vehicle: saline) was 98 % of control. The T/C [5] was 117 % of control, the T/C (dose: 110.0 mg/kg/injection, schedule: Q01DX009 (ip), vehicle: saline) was 107 % of control and the T/C (dose: 220.0 mg/kg/injection, schedule: Q01DX009 (ip), vehicle: saline) was 102 % of control.

In the case of `O=[N+]([O-])c1ccccc1C1OCCO1`, the T/C (dose: 50.0 mg/kg/injection, schedule: Q01DX001 (ip), vehicle: carboxymethylcellulose (CMC)) is reported as 95 % of control, the T/C [12] is reported as 93 % of control and the T/C [13] is reported as 101 % of control. The T/C [14] was 93 % of control.

With `CC(C)c1ccc2ccccc2c1` the T/C [6] was 95 % of control and the T/C [7] was 107 % of control.

With `COc1cc(-c2ccc(Nc3ccccc3C(=O)O)c(OC)c2)ccc1N` the T/C (dose: 15.0 mg/kg/injection, schedule: Q01DX Z (ip), vehicle: carboxymethylcellulose (CMC)) was 102 % of control, the T/C (dose: 22.0 mg/kg/injection, schedule: Q01DX Z (ip), vehicle: carboxymethylcellulose (CMC)) was 117 % of control and the T/C (dose: 23.0 mg/kg/injection, schedule: Q01DX Z (ip), vehicle: carboxymethylcellulose (CMC)) was 112 % of control. The T/C (dose: 35.0 mg/kg/injection, schedule: Q01DX Z (ip), vehicle: carboxymethylcellulose (CMC)) was 111 % of control and 121 % of control, the T/C (dose: 50.0 mg/kg/injection, schedule: Q01DX001 (ip), vehicle: saline) was 121 % of control and the T/C [10] was 115 % of control. The T/C [11] was 114 % of control.

`ClC(=Nc1ccccc1)c1cc(Cl)ccn1` was tested, and the T/C [12] was 92 % of control, the T/C [13] was 94 % of control and the T/C [14] was 100 % of control.

In the case of `N#CC(=C=[N-])[n+]1ccccc1`, the T/C (dose: 6.25 mg/kg/injection, schedule: Q01DX009 (ip), vehicle: saline) is reported as 100 % of control, the T/C [8] is reported as 100 % of control and the T/C (dose: 18.8 mg/kg/injection, schedule: Q01DX001 (ip), vehicle: saline) is reported as 108 % of control. The T/C (dose: 37.5 mg/kg/injection, schedule: Q01DX001 (ip), vehicle: saline) was 100 % of control.

In the case of `CC1=CC(=O)[C@@H](O)[C@]2(C)[C@H]3[C@@]4(O)OC[C@]35[C@H]([C@@H](C)[C@H]4O)[C@@H](O)C(=O)O[C@@H]5C[C@@H]12`, the T/C (dose: 2.5 mg/kg/injection, schedule: Q01DX009 (ip), vehicle: saline) is reported as 107 % of control, the T/C (dose: 5.0 mg/kg/injection, schedule: Q01DX009 (ip), vehicle: saline) is reported as 96 % of control and the T/C (dose: 10.0 mg/kg/injection, schedule: Q01DX009 (ip), vehicle: saline) is reported as 102 % of control. For the same molecule, the T/C (dose: 20.0 mg/kg/injection, schedule: Q01DX009 (ip), vehicle: saline) was 100 % of control.

In the case of `O=C(CCN1CCCC1)c1ccc(F)cc1`, the T/C [9] is reported as 109 % of control and the T/C [3] is reported as 115 % of control.
